Assay results as given in patent US8703172B2, “Sphingolipids for improvement of the composition of the intestinal flora” (Nederlandse Organizatie voor …, priority 2003, dated 2014).
Values after ≈ are worked out from the molar mass of the structure shown. “Also recorded” adds a separate entry of the source. Where two headings read alike, the source gives them in different places.

What was measured:
Gram-positive bacteria = experiment: Antimicrobial activity on agar plates, summary for Gram-positive bacteria; assay type: cell-based
[1] = test system: Bifidobacterium adolescentis; experiment: MIC on agar plates (RCBA); assay type: cell-based; settings: RCBA agar plate, anaerobic, 72 hours at 30° C.; for MIC: Bifidobacterium adolescentis, read-out: MIC, B. adolescentis
Fusobacterium nucleatum = experiment: MIC on agar plates (RCBA); assay type: cell-based; settings: for MIC: Fusobacterium nucleatum, read-out: MIC, F. nucleatum
[2] = test system: Lactobacillus acidophilus; experiment: MIC on agar plates (MRSA); settings: for MIC, L. acidophilus: anaerobic, 72 hours at 30° C.; for MIC: Lactobacillus acidophilus, 72 h, read-out: MIC, L. acidophilus
Bacteroides fragilis = experiment: MIC on agar plates (RCBA); assay type: cell-based; settings: RCBA agar plate, anaerobic, 72 hours at 30° C.; for MIC: Bacteroides fragilis, read-out: MIC, B. fragilis
Lactobacillus casei = experiment: MIC on agar plates (MRSA); settings: for MIC, L. casei: MRSA agar plate, anaerobic, 72 hours at 30° C.; for MIC: Lacticaseibacillus casei, 72 h, read-out: MIC, L. casei
Bifidobacterium spp. = experiment: MIC on agar plates (RCBA); assay type: cell-based; settings: RCBA agar plate, anaerobic, 72 hours at 30° C.; for MIC: Bifidobacterium, read-out: MIC, Bif. spp.
[3] = test system: Streptococcus suis type 2; experiment: MIC on agar plates (TSA); settings: for MIC, S. suis type 2: TSA agar plate, aerobic, 48 hours at 30° C.; for MIC: Streptococcus suis, TYPE2, 48 h, read-out: MIC, S. suis type 2
Lactobacillus sake = experiment: MIC on agar plates (MRSA); settings: for MIC, L. sake: anaerobic, 72 hours at 30° C.; for MIC: Latilactobacillus sakei, 72 h, read-out: MIC, L. sake
Listeria monocytogenes = experiment: MIC on agar plates (TSA); settings: for MIC, L. monocytogenes: TSA agar plate, aerobic, 48 hours at 30° C.; for MIC: Listeria monocytogenes, 48 h, read-out: MIC, L. monocytogenes
Clostridium spp. = experiment: MIC on agar plates (RCBA); assay type: cell-based; settings: for MIC: Clostridium, 72 h, read-out: MIC, C. spp.
Leuconostoc carnosum = experiment: MIC on agar plates (MRSA); settings: for MIC, L. carnosum: agar plate, anaerobic, 72 hours at 30° C.; for MIC: 72 h, read-out: MIC, L. carnosum
Pseudomonas aeruginosa = experiment: MIC on agar plates (TSA); assay type: cell-based; settings: TSA agar plate, aerobic, 48 hours at 30° C.; for MIC: Pseudomonas aeruginosa, read-out: MIC, P. aeruginosa
Salmonella enteritidis = experiment: MIC on agar plates (TSA); assay type: cell-based; settings: TSA agar plate, aerobic, 48 hours at 30° C.; for MIC: Salmonella enterica, ENTERITIDIS, read-out: MIC, S. enteritidis
Enterococcus hirae = experiment: MIC on agar plates (MRSA); settings: for MIC, E. hirae: MRSA agar plate, anaerobic, 72 hours at 30° C.; for MIC: Enterococcus hirae, 72 h, read-out: MIC, E. hirae
Bacillus cereus = experiment: MIC on agar plates (TSA); settings: for MIC, B. cereus: TSA agar plate, aerobic, 48 hours at 30° C.; for MIC: Bacillus cereus, 48 h, read-out: MIC, B. cereus
Clostridium perfringens = experiment: microbe, parasite or virus in culture; assay type: cell-based; settings: 72 h, read-out: MIC, C. perfringens
[4] = test system: Lactobacillus acidophilus; experiment: Antimicrobial activity in small intestine model TIM-1; assay type: cell-based; settings: 20 μg/ml of sphingolipid; lumen samples plated on Rogosa agar
Clostridium difficile [5] = experiment: Survival in liquid ileum medium; assay type: cell-based; settings: within 200 minutes
Clostridium difficile [6] = experiment: Antimicrobial activity in small intestine model TIM-1; assay type: cell-based; settings: 20 μg/ml of sphingolipid; lumen samples plated on Clostridium difficile agar
Clostridium difficile [7] = experiment: MIC on agar plates (RCBA); assay type: cell-based; settings: Clostridioides difficile; RCBA agar plate, anaerobic, 72 hours at 30° C.
[8] = pig, in vivo
Description: (§1) Because the sphingolipids need to be transported together with the food to the small and large intestines to be able to be active there, the transport of phytosphingosine and sphinganine in the stomach and small intestine model TIM-1 was tested. Also, the transport of phytosphingosine in a fistulated pig was tested after the animal had been fed with feed containing phytosphingosine (1 wt. %). In a fistulated pig, the small intestine is uncoupled from the large intestine so that the digested feed at the end of the small intestine can be collected.
To investigate in an in vivo system whether sphingolipids from the food do actually arrive in the large intestine and are not prematurely absorbed or metabolized, pig basic feed to which phytosphingosine (1 wt. %) was added was fed to a fistulated pig.
The feed was prepared by mixing a solution of phytosphingosine in ethanol with the feed and drying it in vacuo. Every hour, the intestinal content (chymus) at the end of the small intestine was separately collected and frozen dry. The dry intestinal contents were then extracted with chloroform/methanol (2:1, v/v). The extracts were then filtered over glass wool and evaporated under a nitrogen flow. The residues were examined for the presence of phytosphingosine, sphingosine, sphinganine and sphingomyelin by means of LC-MS.

[9] = test system: Lactobacillus acidophilus; experiment: Survival in liquid ileum medium; settings: within 200 minutes
[10] = assay type: in vitro ADME
Description: as §1
To investigate whether sphingolipids from the food are transported through the small intestine without being absorbed or being chemically or enzymatically modified in the small intestine, phytosphingosine and sphinganine were mixed in a standard Tim-1 food and exposed to a TIM-1 treatment. Of each sphingolipid, 5 mg per 100 grams of food (0.005 wt. %) in the food were tested. After starting the TIM-1 digestion processes in the TIM-1 stomach, at the fixed times, lumen samples of 100 grams were taken. Also, dialysate samples were taken from the material which was transported through the semi-permeable TIM-1 membrane. The dialysate samples varied between 1428 and 1122 grams. […] Next to the samples, the exposure time in minutes is given.

bacteria tested = experiment: Antimicrobial activity on agar plates, summary for the bacteria tested; assay type: cell-based
[11] = RCBA agar plate, anaerobic, 72 hours at 30° C.
[12] = ileum medium, absence of bile, 10 and 50 μg/ml
[13] = 60 min, 5 mg per 100 grams of food
[14] = 120 min, 5 mg per 100 grams of food
[15] = 180 min, 5 mg per 100 grams of food
[16] = 240 min, 5 mg per 100 grams of food

With `CCCCCCCCCCCCC/C=C/[C@@H](O)[C@@H](N)COP(=O)([O-])OCC[N+](C)(C)C` [Lysosphingomyelin, lysosphingomyelin] the “Antimicrobial activity against Gram-positive bacteria” value (Gram-positive bacteria; agar plates) was “killed; also recorded: strong antimicrobial activity”, the “MIC, B. adolescentis” value [1] was <3.1 µg/mL and the “MIC, F. nucleatum” value (Fusobacterium nucleatum; [11]) was >365 µg/mL. For the same molecule, the “MIC, L. acidophilus” value [2] was 16.6 µg/mL (≈ 35.7 µM), the “MIC, B. fragilis” value (Bacteroides fragilis) was 11.4 µg/mL (≈ 24.5 µM) and the “MIC, L. casei” value (Lactobacillus casei) was >365 µg/mL. For the same molecule, the “MIC, Bif. spp.” value (Bifidobacterium spp.) was 10 µg/mL (≈ 21.5 µM), the “MIC, S. suis type 2” value [3] was <3.1 µg/mL and the “MIC, L. sake” value (Lactobacillus sake) was 20 µg/mL (≈ 43 µM). The “MIC, L. monocytogenes” value (Listeria monocytogenes) was <3.1 µg/mL, the “MIC, C. spp.” value (Clostridium spp.; [11]) was <3.1 µg/mL and the “MIC, L. carnosum” value (Leuconostoc carnosum) was <3.1 µg/mL. The “MIC, P. aeruginosa” value (Pseudomonas aeruginosa) was >365 µg/mL, the “MIC, S. enteritidis” value (Salmonella enteritidis) was >365 µg/mL and the “MIC, E. hirae” value (Enterococcus hirae) was >365 µg/mL. The “MIC, B. cereus” value (Bacillus cereus) was <3.1 µg/mL.

With `CC(=O)O.CCCCCCCCCCCCCCC[C@@H](O)[C@@H](N)CO` [Sphinganine, sphinganine acetate] the “Antimicrobial activity against Gram-positive bacteria” value (Gram-positive bacteria; agar plates, acetate) was “killed; also recorded: strong antimicrobial activity”, the MIC [1] was > 73 µg/mL and the MIC (Fusobacterium nucleatum; 72 h) was > 731 µg/mL. It also gave an MIC [2] of 222 µg/mL, an MIC (Bacteroides fragilis) of 0.3 µg/mL and an MIC (Lactobacillus casei) of 246 µg/mL. The MIC (Clostridium perfringens) was > 36.5 µg/mL, the “Antimicrobial activity against Lactobacillus acidophilus in TIM-1” value [4] was “no demonstrable antimicrobial activity” and the MIC (Bifidobacterium spp.) was 0.9 µg/mL. The “Killing of Clostridium difficile” value (Clostridium difficile [5]; [12]) was “virtually completely killed”, the “Killing of Clostridium difficile” value (Clostridium difficile [5]; liquid cultures, 50 ppm) was “for the larger part killed” and the MIC [3] was < 6.3 µg/mL. The MIC (Lactobacillus sake) was > 70 µg/mL, the MIC (Listeria monocytogenes) was < 6.3 µg/mL and the MIC (Clostridium spp.) was > 73 µg/mL. For the same molecule, the MIC (Leuconostoc carnosum) was < 0.3 µg/mL, the MIC (Pseudomonas aeruginosa) was > 731 µg/mL and the MIC (Salmonella enteritidis) was > 731 µg/mL. For the same molecule, the MIC (Enterococcus hirae) was > 731 µg/mL, the “Antimicrobial activity against Clostridium difficile in TIM-1” value (Clostridium difficile [6]) was “no demonstrable antimicrobial activity” and the MIC (Clostridium difficile [7]) was > 73 µg/mL. For the same molecule, the “Presence in the intestinal contents at the end of the small intestine” value [8] was “small amounts”, the “Killing of Lactobacillus acidophilus” value [9, 12] was “virtually completely killed” and the “Killing of Lactobacillus acidophilus” value ([9]; liquid cultures, 50 ppm) was “for the larger part killed”. For the same molecule, the “Transport through the TIM-1 system” value [10] was “transported to the large intestine to a sufficient extent”, the “Concentration in TIM-1 sample: Dialysate ileum 0-120′” value ([10]; 5 mg per 100 grams of food) was 0 ng/mL and the “Concentration in TIM-1 sample: Dialysate ileum 120-240′” value ([10]; 5 mg per 100 grams of food) was 0 ng/mL. The “Concentration in TIM-1 sample: Dialysate jejunum 0-120′” value ([10]; 5 mg per 100 grams of food) was 0 ng/mL, the “Concentration in TIM-1 sample: Dialysate jejunum 120-240′” value ([10]; 5 mg per 100 grams of food) was 0 ng/mL and the “Concentration in TIM-1 sample: Food” value ([10]; 5 mg per 100 grams of food) was 19360 ng/mL. The “Concentration in TIM-1 sample: Residue jejunum/ileum + dialysis fluid” value ([10]; 5 mg per 100 grams of food) was 8620 ng/mL, the “Concentration in TIM-1 sample: Residue stomach/duodenum + dialysis fluid” value ([10]; 5 mg per 100 grams of food) was 2730 ng/mL and the “Share of the amount used found in the samples (rough mass balance)” value ([10]; 5 mg per 100 grams of food) was “approx. 20%”. For the same molecule, the “Concentration in TIM-1 sample: Lumen ileum 60′” value [10, 13] was 740 ng/mL, the “Concentration in TIM-1 sample: Lumen jejunum 60′” value [10, 13] was 8750 ng/mL and the “Concentration in TIM-1 sample: Lumen ileum 120′” value [10, 14] was 4520 ng/mL. For the same molecule, the “Concentration in TIM-1 sample: Lumen jejunum 120′” value [10, 14] was 11510 ng/mL, the “Concentration in TIM-1 sample: Lumen ileum 180′” value [10, 15] was 5300 ng/mL and the “Concentration in TIM-1 sample: Lumen jejunum 180′” value [10, 15] was 12470 ng/mL. For the same molecule, the “Concentration in TIM-1 sample: Lumen ileum 240′” value [10, 16] was 7910 ng/mL, the “Concentration in TIM-1 sample: Lumen jejunum 240′” value [10, 16] was 10460 ng/mL and the MIC (Bacillus cereus) was < 6.3 µg/mL.

For `CCCCCCCCCCCCC/C=C/[C@@H](O)[C@@H](N)CO` [Sphingosine, sphingosine], the “Antimicrobial activity against Gram-positive bacteria” value (Gram-positive bacteria) was “killed; also recorded: strong antimicrobial activity”, the MIC [1] was < 6.3 µg/mL and the MIC (Fusobacterium nucleatum; [11]) was < 6.3 µg/mL. For the same molecule, the MIC [2] was < 6.3 µg/mL, the MIC (Bacteroides fragilis) was < 6.3 µg/mL and the MIC (Lactobacillus casei) was < 6.3 µg/mL. The MIC (Bifidobacterium spp.) was < 6.3 µg/mL, the MIC [3] was < 6.3 µg/mL and the MIC (Lactobacillus sake) was < 6.3 µg/mL. The MIC (Listeria monocytogenes) was < 6.3 µg/mL, the MIC (Clostridium spp.) was < 6.3 µg/mL and the MIC (Leuconostoc carnosum) was < 6.3 µg/mL. For the same molecule, the MIC (Pseudomonas aeruginosa) was > 731 µg/mL, the MIC (Salmonella enteritidis) was > 731 µg/mL and the MIC (Enterococcus hirae) was 84 µg/mL (≈ 280 µM). The “Presence in the intestinal contents at the end of the small intestine” value [8] was “No sphingosine could be demonstrated” and the MIC (Bacillus cereus) was < 6.3 µg/mL.

For glucosylceramide III, the “MIC, B. adolescentis” value [1] was >365 µg/mL, the “MIC, F. nucleatum” value (Fusobacterium nucleatum; [11]) was >365 µg/mL and the “MIC, L. acidophilus” value [2] was >365 µg/mL. For the same molecule, the “MIC, B. fragilis” value (Bacteroides fragilis) was >365 µg/mL, the “MIC, L. casei” value (Lactobacillus casei) was >365 µg/mL and the “MIC, Bif. spp.” value (Bifidobacterium spp.) was >365 µg/mL. For the same molecule, the “MIC, S. suis type 2” value [3] was >365 µg/mL, the “MIC, L. sake” value (Lactobacillus sake) was >365 µg/mL and the “MIC, L. monocytogenes” value (Listeria monocytogenes) was >365 µg/mL. The “MIC, C. spp.” value (Clostridium spp.) was >365 µg/mL, the “MIC, L. carnosum” value (Leuconostoc carnosum) was >365 µg/mL and the “MIC, P. aeruginosa” value (Pseudomonas aeruginosa) was >365 µg/mL. For the same molecule, the “MIC, S. enteritidis” value (Salmonella enteritidis) was >365 µg/mL, the “MIC, E. hirae” value (Enterococcus hirae) was >365 µg/mL and the “Inhibition of the bacteria tested” value (bacteria tested) was “do not inhibit any of the bacteria tested”. For the same molecule, the “MIC, B. cereus” value (Bacillus cereus) was >365 µg/mL.
